This is an account of results in US12157741B2, “Macrocyclic inhibitors of DYRK1A” (DANA-FARBER CANCER INSTITUTE, INC., priority 2018, dated 2024).

The target of assay [1] is various enzymes (Homo sapiens, UniProt P00533, DEL747-749/A750P). Conditions: EGFR(L747-E749del, A750P); 1 uM.
Description: (§2) Ambit profiling from Eurofins (formerly Discoverx) was conducted in accordance with the manufacturer's instructions.
Assay [2] concerns the target various enzymes (Homo sapiens, UniProt O43683). It counts as binding. The settings on record: compound 1 uM. The protocol: (§1) Ambit profiling was conducted in accordance with the manufacturer's instructions.
Assay [3] has as its target various enzymes (Homo sapiens, UniProt O60331). Format: binding. The settings on record: compound 1 uM. The protocol:
as §1

In assay [4] the target is various enzymes (Homo sapiens, UniProt P00533, G719C). It counts as binding. The protocol:
as §1

In assay [5] the target is various enzymes (Homo sapiens, UniProt P06239). Format: binding. Conditions: compound 1 uM. How it is done: as §1
Assay [6] addresses various enzymes (Homo sapiens, UniProt P11802). Format: binding. The settings on record: compound 1 uM. How it is done: as §1
In assay [7] the target is various enzymes (Homo sapiens, UniProt P12931). Format: binding. The settings on record: compound 1 uM. The protocol: as §1
In assay [8] the target is various enzymes (Homo sapiens, UniProt P14616). Format: binding. Conditions: compound 1 uM. The protocol:
as §1

Assay [9] deals with various enzymes (Homo sapiens, UniProt P15056). It counts as binding. The settings on record: compound 1 uM. How it is done: as §1
In assay [10] the target is various enzymes (Homo sapiens, UniProt P17612). It counts as binding. The settings on record: compound 1 uM. The protocol:
as §1

The target of assay [11] is various enzymes (Homo sapiens, UniProt P25098). It counts as binding. The settings on record: compound 1 uM. The protocol: as §1
Chain of various enzymes (Homo sapiens, UniProt P25098) (P25098 whole entry): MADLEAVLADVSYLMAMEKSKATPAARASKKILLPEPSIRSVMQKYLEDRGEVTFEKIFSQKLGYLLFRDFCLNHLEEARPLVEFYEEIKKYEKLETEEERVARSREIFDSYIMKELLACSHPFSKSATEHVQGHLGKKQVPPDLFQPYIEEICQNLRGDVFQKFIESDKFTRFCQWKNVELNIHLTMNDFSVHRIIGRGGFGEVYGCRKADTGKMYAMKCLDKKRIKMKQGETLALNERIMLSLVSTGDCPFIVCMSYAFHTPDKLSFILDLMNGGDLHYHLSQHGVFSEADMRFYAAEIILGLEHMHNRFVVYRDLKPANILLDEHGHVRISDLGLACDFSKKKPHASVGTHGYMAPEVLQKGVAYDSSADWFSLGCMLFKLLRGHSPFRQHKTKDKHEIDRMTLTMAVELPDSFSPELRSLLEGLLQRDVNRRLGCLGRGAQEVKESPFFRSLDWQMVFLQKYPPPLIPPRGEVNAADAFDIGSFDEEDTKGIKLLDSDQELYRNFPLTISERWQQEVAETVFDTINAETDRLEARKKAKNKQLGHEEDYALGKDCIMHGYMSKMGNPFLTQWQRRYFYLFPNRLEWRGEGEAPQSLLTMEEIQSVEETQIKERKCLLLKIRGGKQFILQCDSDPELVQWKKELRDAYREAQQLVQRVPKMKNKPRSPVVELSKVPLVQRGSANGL
The target in assay [12] is various enzymes (Homo sapiens, UniProt P27037). It counts as binding. The settings on record: compound 1 uM. How it is done:
as §1

The target of assay [13] is various enzymes (Homo sapiens, UniProt P29376). It counts as binding. Conditions: compound 1 uM. How it is done:
as §1

Assay [14] concerns the target various enzymes (Homo sapiens, UniProt P35590). It counts as binding. Conditions: compound 1 uM. How it is done:
as §1

Assay [15] has as its target various enzymes (Homo sapiens, UniProt P36507). Format: binding. The settings on record: compound 1 uM. How it is done:
as §1

Assay [16] has as its target T1, various enzymes (Homo sapiens, UniProt P36888, F691L, form not given).
T1 construct: other: FLT3(ITD, F691L); 1 uM; other: compound 1 uM
Format: binding. How it is done: as §1

Assay [17] has as its target various enzymes (Homo sapiens, UniProt P36896). It counts as binding. The settings on record: compound 1 uM. The protocol: as §1
Assay [18] has as its target various enzymes (Homo sapiens, UniProt P42345). It counts as binding. Conditions: compound 1 uM. How it is done: as §1
In assay [19] the target is various enzymes (Homo sapiens, UniProt P48736). It counts as binding. Conditions: compound 1 uM. How it is done:
as §1

In assay [20] the target is various enzymes (Homo sapiens, UniProt P78368). Format: binding. The settings on record: compound 1 uM. The protocol:
as §1

Assay [21] deals with various enzymes (Homo sapiens, UniProt Q02156). It counts as binding. The settings on record: compound 1 uM. How it is done: as §1
The target in assay [22] is various enzymes (Homo sapiens, UniProt Q12851). It counts as binding. Conditions: compound 1 uM. How it is done:
as §1

The target in assay [23] is various enzymes (Homo sapiens, UniProt Q13555). Format: binding. Conditions: compound 1 uM. The protocol: as §1
Assay [24] addresses various enzymes (Homo sapiens, UniProt Q15835). It counts as binding. The settings on record: compound 1 uM. The protocol: as §1
For assay [25], the target named is various enzymes (Homo sapiens, UniProt Q8TDC3). It counts as binding. Conditions: compound 1 uM. The protocol: as §1
Chain of various enzymes (Homo sapiens, UniProt Q8TDC3) (Q8TDC3 whole entry): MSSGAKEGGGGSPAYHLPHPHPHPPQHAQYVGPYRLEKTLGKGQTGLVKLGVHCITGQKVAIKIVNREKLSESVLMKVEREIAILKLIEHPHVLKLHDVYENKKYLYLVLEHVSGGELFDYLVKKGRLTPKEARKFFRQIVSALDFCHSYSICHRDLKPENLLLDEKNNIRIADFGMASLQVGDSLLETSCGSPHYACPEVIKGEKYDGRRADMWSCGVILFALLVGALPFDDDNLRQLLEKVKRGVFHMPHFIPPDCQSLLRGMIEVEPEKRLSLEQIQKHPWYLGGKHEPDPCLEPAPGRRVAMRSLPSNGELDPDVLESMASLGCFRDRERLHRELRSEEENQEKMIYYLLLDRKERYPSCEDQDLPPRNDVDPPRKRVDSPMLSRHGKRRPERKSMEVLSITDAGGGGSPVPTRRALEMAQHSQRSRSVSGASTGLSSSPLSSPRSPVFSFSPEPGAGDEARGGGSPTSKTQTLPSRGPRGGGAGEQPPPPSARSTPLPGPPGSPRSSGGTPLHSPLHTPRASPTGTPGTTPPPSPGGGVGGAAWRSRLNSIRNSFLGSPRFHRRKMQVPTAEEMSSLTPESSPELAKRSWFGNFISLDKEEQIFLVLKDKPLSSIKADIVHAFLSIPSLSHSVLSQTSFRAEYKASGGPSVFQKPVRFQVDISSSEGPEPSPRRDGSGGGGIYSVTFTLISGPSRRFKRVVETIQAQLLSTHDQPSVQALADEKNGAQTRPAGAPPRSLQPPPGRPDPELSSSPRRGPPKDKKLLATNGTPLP
Assay [26] deals with various enzymes (Homo sapiens, UniProt Q9BUB5). It counts as binding. The settings on record: compound 1 uM. The protocol:
as §1

The target of assay [27] is various enzymes (Homo sapiens, UniProt Q9C098). It counts as binding. Conditions: compound 1 uM. How it is done: as §1
For assay [28], the target named is various enzymes (Homo sapiens, UniProt Q9H3Y6). It counts as binding. The settings on record: compound 1 uM. The protocol: as §1
Assay [29] deals with various enzymes (Homo sapiens, UniProt Q9NRH2). It counts as binding. The settings on record: compound 1 uM. How it is done:
as §1

For assay [30], the target named is various enzymes (Homo sapiens, UniProt Q9NY57). It counts as binding. Conditions: compound 1 uM. The protocol:
as §1

Assay [31] concerns the target various enzymes (Homo sapiens, UniProt Q9P286). Format: binding. The settings on record: compound 1 uM. How it is done:
as §1

Assay [32] deals with various enzymes (Homo sapiens, UniProt Q9UEW8). It counts as binding. Conditions: compound 1 uM. The protocol: as §1
Assay [33] has as its target various enzymes (Homo sapiens, UniProt Q9Y4K4). Format: binding. Conditions: compound 1 uM. The protocol:
as §1

Assay [34] addresses various enzymes (Homo sapiens, UniProt O00141). Put plainly: Enzyme IC50 of compound 48 (Table 3). It counts as biochemical. Conditions: SGK.
Assay [35] concerns the target T2, various enzymes (Homo sapiens, UniProt P36888, D835V, form not given).
T2 construct: Enzyme IC50; other: FLT3(ITD, D835V)
In words: Enzyme IC50 of compound 48 (Table 3). Conditions: read-out: Enzyme IC50; FLT3(ITD, D835V). It counts as biochemical.

Assay [36] addresses various enzymes (Homo sapiens, UniProt P36888, D835V, form not given).
Assay [37] deals with various enzymes (Homo sapiens, UniProt P36888, F691L, form not given).
The target in assay [38] is various enzymes (Homo sapiens, UniProt Q6P2M8). Conditions: CAMK1B; 1 uM.
Description: as §2
Assay [39] has as its target various enzymes (Homo sapiens, UniProt Q9Y2I7). Conditions: PIKFYVE; 1 uM.
Description: as §2
The target in assay [40] is various enzymes (Homo sapiens, UniProt Q9UKE5). In words: Enzyme IC50 of compound 48 (Table 3). It counts as biochemical. Details: Enzyme IC50; other: TNIK. Conditions: TNIK.

Read-outs that look alike come from different tables or passages of the source.

Chain of various enzymes (Homo sapiens, UniProt P11802) (P11802 whole entry): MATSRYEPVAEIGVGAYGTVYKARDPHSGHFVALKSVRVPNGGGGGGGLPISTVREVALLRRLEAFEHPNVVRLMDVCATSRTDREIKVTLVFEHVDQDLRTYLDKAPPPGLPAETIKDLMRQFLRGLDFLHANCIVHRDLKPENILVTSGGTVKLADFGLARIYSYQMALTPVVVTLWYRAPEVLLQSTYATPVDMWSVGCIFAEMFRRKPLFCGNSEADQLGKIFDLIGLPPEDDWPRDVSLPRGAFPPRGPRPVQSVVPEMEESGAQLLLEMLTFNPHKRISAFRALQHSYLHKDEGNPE
Chain of various enzymes (Homo sapiens, UniProt Q9BUB5) (Q9BUB5 whole entry): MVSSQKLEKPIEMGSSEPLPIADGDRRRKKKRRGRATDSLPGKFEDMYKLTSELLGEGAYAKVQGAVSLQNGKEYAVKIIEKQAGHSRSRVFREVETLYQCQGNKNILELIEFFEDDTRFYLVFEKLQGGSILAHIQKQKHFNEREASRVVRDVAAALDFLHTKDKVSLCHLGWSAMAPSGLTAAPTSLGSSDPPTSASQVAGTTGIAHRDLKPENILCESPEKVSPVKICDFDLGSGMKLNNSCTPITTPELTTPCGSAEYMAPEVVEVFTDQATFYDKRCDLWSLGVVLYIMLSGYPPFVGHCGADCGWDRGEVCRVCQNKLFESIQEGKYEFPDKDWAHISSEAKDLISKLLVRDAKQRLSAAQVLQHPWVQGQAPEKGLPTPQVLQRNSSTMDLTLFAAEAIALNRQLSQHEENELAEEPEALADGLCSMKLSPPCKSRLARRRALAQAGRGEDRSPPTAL
Chain of various enzymes (Homo sapiens, UniProt P36507) (P36507 whole entry): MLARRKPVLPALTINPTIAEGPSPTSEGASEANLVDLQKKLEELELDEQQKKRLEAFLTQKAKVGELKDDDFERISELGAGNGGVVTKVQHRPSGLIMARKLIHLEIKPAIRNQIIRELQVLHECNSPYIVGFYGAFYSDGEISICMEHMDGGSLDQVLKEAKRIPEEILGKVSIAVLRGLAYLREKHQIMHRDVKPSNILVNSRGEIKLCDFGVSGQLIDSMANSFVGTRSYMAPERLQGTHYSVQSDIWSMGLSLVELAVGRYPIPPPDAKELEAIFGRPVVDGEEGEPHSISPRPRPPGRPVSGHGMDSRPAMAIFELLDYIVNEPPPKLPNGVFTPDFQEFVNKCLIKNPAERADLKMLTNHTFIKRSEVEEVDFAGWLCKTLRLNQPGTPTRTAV
Chain of various enzymes (Homo sapiens, UniProt Q9NY57) (Q9NY57 whole entry): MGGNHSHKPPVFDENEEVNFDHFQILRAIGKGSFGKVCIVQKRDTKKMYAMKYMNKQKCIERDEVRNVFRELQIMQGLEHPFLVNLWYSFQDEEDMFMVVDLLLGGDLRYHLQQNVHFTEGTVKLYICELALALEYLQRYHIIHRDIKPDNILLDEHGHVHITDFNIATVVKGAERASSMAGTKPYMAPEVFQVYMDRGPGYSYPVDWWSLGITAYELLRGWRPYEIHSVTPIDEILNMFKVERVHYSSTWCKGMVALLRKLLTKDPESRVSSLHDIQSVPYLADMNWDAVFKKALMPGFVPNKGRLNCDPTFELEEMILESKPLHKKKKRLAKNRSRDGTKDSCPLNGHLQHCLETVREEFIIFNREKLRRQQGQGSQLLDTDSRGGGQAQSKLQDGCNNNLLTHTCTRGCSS
Chain of various enzymes (Homo sapiens, UniProt Q12851) (Q12851 whole entry): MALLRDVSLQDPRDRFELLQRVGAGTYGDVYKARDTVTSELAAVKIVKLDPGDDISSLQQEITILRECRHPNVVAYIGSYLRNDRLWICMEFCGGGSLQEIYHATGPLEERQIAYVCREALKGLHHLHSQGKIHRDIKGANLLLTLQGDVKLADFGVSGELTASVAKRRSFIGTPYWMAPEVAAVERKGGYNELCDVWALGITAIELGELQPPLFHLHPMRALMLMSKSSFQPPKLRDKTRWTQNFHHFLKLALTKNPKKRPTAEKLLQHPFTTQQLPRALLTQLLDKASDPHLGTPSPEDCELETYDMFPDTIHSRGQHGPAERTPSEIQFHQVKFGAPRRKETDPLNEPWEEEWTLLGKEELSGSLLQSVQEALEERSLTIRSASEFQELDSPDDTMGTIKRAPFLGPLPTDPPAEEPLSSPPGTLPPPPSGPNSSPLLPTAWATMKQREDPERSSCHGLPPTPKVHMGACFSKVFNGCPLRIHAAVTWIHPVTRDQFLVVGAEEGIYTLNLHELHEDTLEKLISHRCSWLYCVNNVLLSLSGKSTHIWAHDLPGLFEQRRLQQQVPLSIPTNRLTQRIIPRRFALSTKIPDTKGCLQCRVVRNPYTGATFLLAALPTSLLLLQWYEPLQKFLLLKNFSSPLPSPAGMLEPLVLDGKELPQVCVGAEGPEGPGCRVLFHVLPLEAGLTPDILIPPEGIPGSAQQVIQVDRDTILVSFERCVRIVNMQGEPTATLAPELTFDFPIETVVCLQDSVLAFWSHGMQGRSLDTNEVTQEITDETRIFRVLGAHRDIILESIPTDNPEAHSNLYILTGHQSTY
Chain of various enzymes (Homo sapiens, UniProt Q9P286) (Q9P286 whole entry): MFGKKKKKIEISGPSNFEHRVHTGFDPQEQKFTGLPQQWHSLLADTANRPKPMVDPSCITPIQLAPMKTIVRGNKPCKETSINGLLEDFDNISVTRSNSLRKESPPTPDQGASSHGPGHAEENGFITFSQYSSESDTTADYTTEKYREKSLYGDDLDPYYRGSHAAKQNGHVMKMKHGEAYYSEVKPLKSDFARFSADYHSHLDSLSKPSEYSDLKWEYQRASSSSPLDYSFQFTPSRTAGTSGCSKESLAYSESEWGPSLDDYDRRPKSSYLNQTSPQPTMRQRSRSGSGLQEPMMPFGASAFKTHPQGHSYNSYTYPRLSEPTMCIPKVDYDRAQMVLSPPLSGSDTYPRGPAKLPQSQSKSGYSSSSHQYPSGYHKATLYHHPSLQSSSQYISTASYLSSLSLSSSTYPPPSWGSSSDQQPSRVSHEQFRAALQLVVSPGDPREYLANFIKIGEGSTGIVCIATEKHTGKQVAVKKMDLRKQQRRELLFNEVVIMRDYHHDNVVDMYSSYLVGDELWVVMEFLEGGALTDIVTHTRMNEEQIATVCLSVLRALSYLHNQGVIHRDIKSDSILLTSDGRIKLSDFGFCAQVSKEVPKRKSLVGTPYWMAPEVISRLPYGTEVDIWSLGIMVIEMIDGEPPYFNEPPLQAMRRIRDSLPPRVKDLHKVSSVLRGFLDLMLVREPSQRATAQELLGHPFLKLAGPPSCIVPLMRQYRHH
Chain of various enzymes (Homo sapiens, UniProt P78368) (P78368 whole entry): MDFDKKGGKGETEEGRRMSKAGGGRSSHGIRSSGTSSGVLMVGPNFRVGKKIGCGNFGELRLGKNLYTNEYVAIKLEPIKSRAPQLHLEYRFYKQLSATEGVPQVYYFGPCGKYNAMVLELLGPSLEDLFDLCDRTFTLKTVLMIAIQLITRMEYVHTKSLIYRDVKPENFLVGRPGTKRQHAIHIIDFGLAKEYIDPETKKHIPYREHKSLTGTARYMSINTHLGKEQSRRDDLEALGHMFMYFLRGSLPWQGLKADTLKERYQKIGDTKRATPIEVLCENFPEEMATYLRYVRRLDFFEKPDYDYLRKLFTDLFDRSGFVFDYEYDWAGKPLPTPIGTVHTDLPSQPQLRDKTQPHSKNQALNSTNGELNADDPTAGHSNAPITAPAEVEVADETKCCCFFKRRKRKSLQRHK

The compound `CN1Cc2nn(C)cc2-c2cnc3[nH]cc(c3c2)-c2cnn(c2)CCCC1=O` [Compound 41, (Z)-31,5-dimethyl-11H,21H,31H-5-aza-2(3,5)-pyrrolo[2,3-b]pyridina-1(4,1),3(4,3)-dipyrazolacyclononaphan-6-one] returned an Ambit profiling on various enzymes [1] of 79.

Regarding `CC(C)N1Cc2nn(C)cc2-c2cnc3[nH]cc(c3c2)-c2cn(nc2C(F)(F)F)CCCC1=O` [Compound 45, (Z)-5-isopropyl-31-methyl-13-(trifluoromethyl)-11H,21H,31H-5-aza-2(3,5)-pyrrolo[2,3-b]pyridina-1(4,1),3(4,3)-dipyrazolacyclononaphan-6-one], the “Ambit profiling: BUB1” value at various enzymes [2] came out at 81. Further, the “Ambit profiling: PIP5K1C” value on various enzymes [3] came out at 5.8. Also, at various enzymes [4] (compound 1 uM), the “Ambit profiling: EGFR(G719C)” value was 59. The “Ambit profiling: LCK” value at various enzymes [5] was determined as 0.65. At various enzymes [6], the “Ambit profiling: CDK4” value was found to be 100, the “Ambit profiling: CDK4-cyclinD1” value is recorded as 53 and the “Ambit profiling: CDK4-cyclinD3” value is recorded as 100. For the same compound, on various enzymes [7], the “Ambit profiling: SRC” value came out at 25. The “Ambit profiling: INSRR” value on various enzymes [8] was 51. In addition, on various enzymes [9], the “Ambit profiling: BRAF” value came out at 100. Moreover, the “Ambit profiling: PKAC-alpha” value on various enzymes [10] was 51. Moreover, the “Ambit profiling: GRK2” value at various enzymes [11] was found to be 100. Moreover, the “Ambit profiling: ACVR2A” value at various enzymes [12] came out at 100. On various enzymes [13], the “Ambit profiling: LTK” value is 18. The “Ambit profiling: TIE1” value on various enzymes [14] was determined as 7.2. Besides, the “Ambit profiling: MEK2” value on various enzymes [15] turned out to be 12. The “Ambit profiling: FLT3(ITD, F691L)” value on various enzymes [16] (compound 1 uM) is listed as 0. In addition, at various enzymes [17], the “Ambit profiling: ACVR1B” value is on record as 89. In addition, on various enzymes [18], the “Ambit profiling: MTOR” value was 69. On various enzymes [19], the “Ambit profiling: PIK3CG” value was 94. Further, the “Ambit profiling: CSNK1G2” value at various enzymes [20] amounted to 100. Also, the “Ambit profiling: PRKCE” value on various enzymes [21] came to 90. At various enzymes [22], the “Ambit profiling: MAP4K2” value was 3.9. Also, the “Ambit profiling: CAMK2G” value at various enzymes [23] is listed as 24. For the same compound, the “Ambit profiling: GRK1” value at various enzymes [24] turned out to be 17. Also, at various enzymes [25], the “Ambit profiling: BRSK1” value amounted to 100. Besides, the “Ambit profiling: MKNK1” value on various enzymes [26] is listed as 100. For the same compound, the “Ambit profiling: DCAMKL3” value at various enzymes [27] stood at 19. Besides, the “Ambit profiling: SRMS” value at various enzymes [28] is recorded as 69. Moreover, at various enzymes [29], the “Ambit profiling: SNRK” value was found to be 100. In addition, at various enzymes [30], the “Ambit profiling: YANK2” value came out at 100. In addition, the “Ambit profiling: PAK7” value at various enzymes [31] is given as 51. Moreover, at various enzymes [32], the “Ambit profiling: STK39” value amounted to 98. On various enzymes [33], the “Ambit profiling: MAP4K5” value is recorded as 1.2.

Turning to `CN1Cc2nn(C)c(C#N)c2-c2cnc3[nH]cc(c3c2)-c2cn(nc2C(F)(F)F)CCCC1=O` [Compound 48, (Z)-31,5-dimethyl-6-oxo-13-(trifluoromethyl)-11H,21H,31H-5-aza-2(3,5)-pyrrolo[2,3-b]pyridina-1(4,1),3(4,3)-dipyrazolacyclononaphane-35-carbonitrile], the IC50 came out at 212 nM against various enzymes [34], 354 nM on various enzymes [35] and 87 nM on various enzymes [40]. For the same compound, the Ambit profiling was found to be 2.2 at various enzymes [36], 46 on various enzymes [37], 2.9 at various enzymes [38] and 94 on various enzymes [39].

For `COc1c2c(nn1C)CN(C(C)C)C(=O)CCCn1cc(c(C(F)(F)F)n1)-c1c[nH]c3ncc-2cc13` [Compound 50, (Z)-5-isopropyl-35-methoxy-31-methyl-13-(trifluoromethyl)-11H,21H,31H-5-aza-2(3,5)-pyrrolo[2,3-b]pyridina-1(4,1),3(4,3)-dipyrazolacyclononaphan-6-one], the “Ambit profiling: BUB1” value on various enzymes [2] came to 35. Besides, the “Ambit profiling: PIP5K1C” value on various enzymes [3] worked out at 32. Besides, the “Ambit profiling: EGFR(G719C)” value at various enzymes [4] is given as 51. The “Ambit profiling: LCK” value on various enzymes [5] is 1.9. Besides, at various enzymes [6], the “Ambit profiling: CDK4” value was 88, the “Ambit profiling: CDK4-cyclinD1” value amounted to 76 and the “Ambit profiling: CDK4-cyclinD3” value amounted to 81. Also, the “Ambit profiling: SRC” value at various enzymes [7] turned out to be 13. Besides, the “Ambit profiling: INSRR” value on various enzymes [8] stood at 56. For the same compound, the “Ambit profiling: BRAF” value on various enzymes [9] was found to be 87. For the same compound, the “Ambit profiling: PKAC-alpha” value on various enzymes [10] stood at 72. For the same compound, the “Ambit profiling: GRK2” value at various enzymes [11] was 87. For the same compound, the “Ambit profiling: ACVR2A” value at various enzymes [12] is recorded as 96. Moreover, the “Ambit profiling: LTK” value on various enzymes [13] was found to be 8.7. For the same compound, the “Ambit profiling: TIE1” value at various enzymes [14] turned out to be 9.2. Further, the “Ambit profiling: MEK2” value at various enzymes [15] was 11. Also, the “Ambit profiling: FLT3(ITD, F691L)” value at various enzymes [16] stood at 0. Also, on various enzymes [17], the “Ambit profiling: ACVR1B” value is 57. Further, at various enzymes [18], the “Ambit profiling: MTOR” value is 98. For the same compound, on various enzymes [19], the “Ambit profiling: PIK3CG” value worked out at 54. Moreover, on various enzymes [20], the “Ambit profiling: CSNK1G2” value is recorded as 83. At various enzymes [21], the “Ambit profiling: PRKCE” value worked out at 30. The “Ambit profiling: MAP4K2” value on various enzymes [22] turned out to be 44. Further, the “Ambit profiling: CAMK2G” value on various enzymes [23] was 31. For the same compound, the “Ambit profiling: GRK1” value at various enzymes [24] worked out at 44. In addition, at various enzymes [25], the “Ambit profiling: BRSK1” value came out at 89. The “Ambit profiling: MKNK1” value at various enzymes [26] turned out to be 83. Further, the “Ambit profiling: DCAMKL3” value at various enzymes [27] is listed as 56. On various enzymes [28], the “Ambit profiling: SRMS” value worked out at 81. Moreover, on various enzymes [29], the “Ambit profiling: SNRK” value amounted to 86. In addition, at various enzymes [30], the “Ambit profiling: YANK2” value stood at 45. The “Ambit profiling: PAK7” value at various enzymes [31] was 100. Also, the “Ambit profiling: STK39” value at various enzymes [32] came out at 100. Further, the “Ambit profiling: MAP4K5” value on various enzymes [33] was 4.1.
